Assay results reported in patent publication US10849958B2, “Knee pain evaluation and management via WOMAC and KOOS systems” (ORTHOTROPHIX, INC., priority 2017, dated 2020).
Ends that are not written are not given here.

Tested on: subjects with bilateral patello-femoral knee osteoarthritis
Assay: Randomized double-blind placebo-controlled clinical study of TPX-100, safety and tolerability
Format: in vivo, human
[1] = intra-articular, four weekly doses, throughout the study period

TDLQERGDNDISPFSGDGQPFKD-NH2 [TPX-100]
Dose-limiting toxicities (Part A, 20, 50, 100 and 200 mg per intra-articular injection, four weekly injections): no dose-limiting toxicities
Severe adverse events related to the drug treatment [1]: no severe adverse events likely or possibly related to the drug treatment
Severity of treatment-related adverse events [1]: mild or moderate, transient
Safety and tolerability of the treatments (intra-articular, four weekly doses, throughout the study period (12 months)): safe and well tolerated
